In data set [1] the test system is Cyperus serotinus. The experiment in a line: Herbicidal activity against Cyperus serotinus assessed as weed control in transplanted rice field at 30 g/ha treated after 3 days transplanting. The data set is classed as functional.
Data set [2] has as its system Echinochloa crus-galli. The experiment in a line: Herbicidal activity against Echinochloa crus-galli (barnyard grass) assessed as growth inhibition measured after 2 days by preemergence activity assay. It is filed as functional.
The subject of data set [3] is Oryza sativa. Briefly: Effect on Oryza sativa (rice) plant growth in transplanted Oryza sativa field assessed as plant height at 30 g/ha treated after 7 days transplanting. It is filed as organism-based. The note with it: in vivo, other, 168 h.
Data set [4] relates to unidentified. Briefly: Herbicidal activity against broadleaf weed assessed as weed control in transplanted rice field at 30 g/ha treated after 15 days transplanting. It is filed as functional.
The subject of data set [5] is Schoenoplectiella juncoides. Briefly: Herbicidal activity against Schoenoplectiella juncoides assessed as weed control in transplanted rice field at 30 g/ha treated after 10 days transplanting. The data set is classed as functional.
Data set [6] concerns Cyperus serotinus. The experiment in a line: Herbicidal activity against Cyperus serotinus assessed as growth inhibition measured after 2 days by preemergence activity assay. The data set is classed as functional.
Data set [7] concerns Oryza sativa. The experiment in a line: Effect on Oryza sativa (rice) plant growth in transplanted Oryza sativa field assessed as plant height at 30 g/ha treated after 3 days transplanting. The data set is classed as organism-based. The note with it: in vivo, other, 72 h.
Data set [8] relates to Oryza sativa. Briefly: Effect on Oryza sativa (rice) plant growth in transplanted Oryza sativa field assessed as number of tillers at 20 g/ha treated after 3 days transplanting. It is filed as organism-based. The note with it: in vivo, other, 72 h.
Data set [9] has as its system Cyperus serotinus. Briefly: Herbicidal activity against Cyperus serotinus assessed as weed control in transplanted rice field at 30 g/ha treated after 15 days transplanting. The data set is classed as functional.
The subject of data set [10] is Echinochloa crus-galli. The experiment in a line: Herbicidal activity against Echinochloa crus-galli (barnyard grass) assessed as growth inhibition in paddy condition under greenhouse at 5 g/ha measured after 18 days by preemergence activity assay. The note with it: pre-emergence, 432 h, read-out: GI. The data set is classed as functional.
A further data set has as its system Rotala indica. Briefly: Herbicidal activity against Rotala indica assessed as growth inhibition in paddy condition under greenhouse at 5 g/ha measured after 18 days by preemergence activity assay. The note with it: pre-emergence, 432 h, read-out: GI. It is filed as functional.
Data set [11] has as its system unidentified. The experiment in a line: Herbicidal activity against broadleaf weed assessed as weed control in transplanted rice field at 30 g/ha treated after 3 days transplanting. The data set is classed as functional.
Data set [12] relates to Cyperus serotinus. Briefly: Herbicidal activity against Cyperus serotinus assessed as weed control in transplanted rice field at 20 g/ha treated after 3 days transplanting. It is filed as functional.
Data set [13] relates to Schoenoplectiella juncoides. The experiment in a line: Herbicidal activity against Schoenoplectiella juncoides assessed as weed control in transplanted rice field at 30 g/ha treated after 15 days transplanting. The data set is classed as functional.
The subject of data set [14] is Pontederia vaginalis. The experiment in a line: Herbicidal activity against Monochoria vaginalis assessed as weed control in transplanted rice field at 30 g/ha treated after 3 days transplanting. It is filed as functional.
Data set [15] has as its system Pontederia vaginalis. Briefly: Herbicidal activity against three to five-leaf stage Monochoria vaginalis assessed as growth inhibition treated 7 to 15 days after planting measured by postemergence activity assay. It is filed as functional.
The test system of data set [16] is Oryza sativa. The experiment in a line: Effect on Oryza sativa (rice) plant growth in transplanted Oryza sativa field assessed as plant height at 30 g/ha treated after 15 days transplanting. The note with it: in vivo, 360 h. It is filed as organism-based.
In data set [17] the test system is Schoenoplectiella juncoides. The experiment in a line: Herbicidal activity against Schoenoplectiella juncoides assessed as weed control in transplanted rice field at 30 g/ha treated after 7 days transplanting. It is filed as functional.
Data set [18] concerns Schoenoplectiella juncoides. Briefly: Herbicidal activity against two-leaf stage Schoenoplectiella juncoides assessed as growth inhibition treated 7 to 15 days after planting measured by postemergence activity assay. The data set is classed as functional.
The subject of data set [19] is Pontederia vaginalis. The experiment in a line: Herbicidal activity against Monochoria vaginalis assessed as weed control in transplanted rice field at 30 g/ha treated after 15 days transplanting. The data set is classed as functional.
Data set [20] relates to Pontederia vaginalis. The experiment in a line: Herbicidal activity against Monochoria vaginalis assessed as growth inhibition measured after 2 days by preemergence activity assay. The data set is classed as functional.
Data set [21] relates to Cyperus serotinus. The experiment in a line: Herbicidal activity against Cyperus serotinus assessed as weed control in transplanted rice field at 30 g/ha treated after 7 days transplanting. The data set is classed as functional.

Take `CCOC(=O)c1cnn(C)c1S(=O)(=O)NC(=O)Nc1nc(OC)cc(OC)n1` [PYRAZOSULFURON ETHYL]: the Activity in the data set with Cyperus serotinus [1] stood at 100%; in the data set on Oryza sativa [3] it was 104%; in the data set on unidentified [4], 100%; in [5], 93%; with Oryza sativa [7] it was 104%; with Oryza sativa [8], 100%. The Activity with Cyperus serotinus [9] was determined as 97%; with unidentified [11], 100%; in the data set on Cyperus serotinus [12], 98%; in data set [13] it was 97%; in the data set with Pontederia vaginalis [14], 100%; with Oryza sativa [16], 101%. Also, the Activity in data set [17] stood at 100%; in the data set on Pontederia vaginalis [19], 97%; in the data set with Cyperus serotinus [21], 100%. The I75 in the data set on Echinochloa crus-galli [2] was determined as 13 gAi/ha; with Cyperus serotinus [6], 0.9 gAi/ha; with Pontederia vaginalis [15] it was 2.7 gAi/ha; in data set [18], 13 gAi/ha; in the data set on Pontederia vaginalis [20] it was 2.7 gAi/ha. For the same compound, the inhibition of growth at 5 g/ha in the data set with Echinochloa crus-galli [10] was 40%; in the data set on Rotala indica, over 90%.
